Test results: ChEMBL document CHEMBL1152692, “Synthesis and evaluation of ligands for D2-like receptors: the role of common pharmacophoric groups” (Bioorg Med Chem, 2009)
The source made the active and inactive calls. The rule behind the calls is not given here.

Legend:
[1] = target: T1, D(2) dopamine receptor (Homo sapiens, UniProt P14416)
[2] = target: T2, D(3) dopamine receptor (Homo sapiens, UniProt P35462)
[3] = target: T3, D(4) dopamine receptor (Homo sapiens, UniProt P21917)
T3 sequence (P21917 whole entry): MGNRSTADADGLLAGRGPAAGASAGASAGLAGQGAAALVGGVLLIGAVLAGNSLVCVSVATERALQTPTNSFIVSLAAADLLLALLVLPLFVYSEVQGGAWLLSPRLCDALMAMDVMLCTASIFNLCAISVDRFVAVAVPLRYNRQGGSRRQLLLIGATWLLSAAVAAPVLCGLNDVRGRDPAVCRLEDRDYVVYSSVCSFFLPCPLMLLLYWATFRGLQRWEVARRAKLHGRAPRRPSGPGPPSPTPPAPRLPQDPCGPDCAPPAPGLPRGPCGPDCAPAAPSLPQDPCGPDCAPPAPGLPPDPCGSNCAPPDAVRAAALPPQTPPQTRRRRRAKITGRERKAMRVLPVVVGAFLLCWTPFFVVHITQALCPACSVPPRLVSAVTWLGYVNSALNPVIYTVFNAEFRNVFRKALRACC

[4] = target: T1, D(2) dopamine receptor; remark: listed apart in the source
[5] = target: T2, D(3) dopamine receptor; remark: listed apart in the source
[6] = target: T4, D(4) dopamine receptor (Homo sapiens) (UniProt P21917)
T4 sequence (whole entry): T3 sequence (P21917 whole entry)

T2 sequence (P35462 whole entry): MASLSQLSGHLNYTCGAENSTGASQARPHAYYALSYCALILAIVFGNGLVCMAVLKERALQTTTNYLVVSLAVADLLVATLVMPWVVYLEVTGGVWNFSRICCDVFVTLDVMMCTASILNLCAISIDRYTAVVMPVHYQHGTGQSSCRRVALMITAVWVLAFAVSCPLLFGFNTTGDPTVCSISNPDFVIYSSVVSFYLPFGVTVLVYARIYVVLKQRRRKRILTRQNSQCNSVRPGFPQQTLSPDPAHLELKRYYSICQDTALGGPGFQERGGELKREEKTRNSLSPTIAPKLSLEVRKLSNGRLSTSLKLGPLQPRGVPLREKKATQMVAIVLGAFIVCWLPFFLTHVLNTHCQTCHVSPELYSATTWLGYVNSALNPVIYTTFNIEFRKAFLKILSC
T1 sequence (P14416 whole entry): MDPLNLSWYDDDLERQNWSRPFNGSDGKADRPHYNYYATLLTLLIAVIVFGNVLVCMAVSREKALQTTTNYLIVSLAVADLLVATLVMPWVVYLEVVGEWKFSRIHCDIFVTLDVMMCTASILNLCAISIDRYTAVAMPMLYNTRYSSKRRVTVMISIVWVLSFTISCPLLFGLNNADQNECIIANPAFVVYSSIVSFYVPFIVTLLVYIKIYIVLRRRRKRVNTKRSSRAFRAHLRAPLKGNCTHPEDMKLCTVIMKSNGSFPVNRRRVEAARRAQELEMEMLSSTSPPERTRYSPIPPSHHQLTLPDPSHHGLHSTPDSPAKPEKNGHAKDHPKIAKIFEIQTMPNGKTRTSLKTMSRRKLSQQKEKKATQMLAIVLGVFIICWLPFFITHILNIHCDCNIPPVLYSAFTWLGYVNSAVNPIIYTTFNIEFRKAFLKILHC

| SMILES | Ki [3] [nM] | Activity [4] | Activity [5] | Ki [1] [nM] | Ki [2] [nM] | Activity [6] |
| --- | --- | --- | --- | --- | --- | --- |
| O[C@]1(c2ccc(Cl)cc2)C[C@H]2CC[C@@H](C1)N2Cc1c[nH]c2ccccc12 | 3010 | – | – | – | 25 | – |
| O=C(CCCN1CCN(c2ccc(Cl)cc2)CC1)c1ccc(F)cc1 | 17 | – | – | – | – | – |
| OC1(c2ccc(Cl)cc2)CCN(CCc2c[nH]c3ccccc23)C1 (stereo not drawn) | – | inactive | – | – | 3070 | inactive |
| Clc1ccc(N2CC3CC2CN3Cc2c[nH]c3ncccc23)cc1 (stereo not drawn) | 69 | – | – | 62 | 11 | – |
| OC1(c2ccc(Cl)cc2)CC2CCC(C1)N2CCc1c[nH]c2ccccc12 (stereo not drawn) | – | – | – | 53 | 18 | – |
| OC1(c2ccc(Cl)cc2)CC2CCC(C1)N2Cc1c[nH]c2ncccc12 (stereo not drawn) | – | – | – | 588 | – | – |
| O=C(CCCN1CC2CC1N(c1ccc(Cl)cc1)C2)c1ccc(F)cc1 (stereo not drawn) | 513 | – | – | 170 | 220 | – |
| O=C(CN1C2CCC1CC(O)(c1ccc(Cl)cc1)C2)c1ccc(F)cc1 (stereo not drawn) | – | – | – | – | > 10000 | – |

The next lines start with results.

| Ki [3] [nM] | Activity [4] | Activity [5] | SMILES | Ki [1] [nM] | Ki [2] [nM] | Activity [6] |
| --- | --- | --- | --- | --- | --- | --- |
| 56 | – | – | c1cnc(N2CCN(Cc3c[nH]c4ncccc34)CC2)nc1 | 1170 | 1500 | – |
| 18.6 | – | – | Clc1ccc(N2CCCN(Cc3c[nH]c4ncccc34)CC2)cc1 | 970 | 370 | – |
| 1210 | inactive | inactive | OC1(c2ccc(Cl)cc2)CCN(Cc2c[nH]c3ncccc23)C1 (stereo not drawn) | – | – | – |
| 816 | inactive | – | OC1(c2ccc(Cl)cc2)CCN(Cc2c[nH]c3ccccc23)C1 (stereo not drawn) | – | 2870 | – |
